# From patent US20150219624A1, “METHODS FOR IDENTIFYING ANTI-CANCER COMPOUNDS” (MEMORIAL SLOAN KETTERING CANCER CENTER, priority 2013, published 2015)
# Where “and” joins values, the source holds several entries; their conditions need not be identical. Equal values may be shown once.
# Assay: In vivo toxicity studies (body and organ weights, hematology, clinical chemistry, histopathology)
# Protocol: Toxicity studies. Eight week-old C57Bl/6NTac female mice were randomly assigned to either control or treatment groups. Each treatment group received one daily dose of test article through i.p. injection over 5 consecutive days. Toxicity was monitored by weight loss and daily clinical observation for the 14 days following test article administration. 24 hours after the last test article administration 4 mice in each group were sacrificed and clinical chemistry, hematology and tissue specific histopathology were done at autopsy. The remaining mice (n=2 per group) were kept under observation for an additional 13 days; at that point all mice were sacrificed and clinical chemistry, hematology and tissue specific histopathology were done at time of autopsy.
# D) KOPT-K1 xenograft studies.
# [1] = 0.2 mg/kg, female, Day 5, individual animals
# [2] = 0.2 mg/kg, female, Day 19, % change of mean vs vehicle
# [3] = 0.2 mg/kg, female, Day 19, group mean
# [4] = 0.2 mg/kg, female, Day 19, individual animals
# [5] = bone marrow cytology, count of 300 total cells, individual animals Treatment #7-#10
# [6] = bone marrow cytology, individual animals Treatment #7-#10
# [7] = spleen cytology, individual animals Treatment #7-#10
# [8] = therapeutic doses (0.2 mg/kg i.p.)
substance,measurement,setting,value
(±)-CR-31-B,NEUT,[1],1.05 K/uL and 1.69 K/uL and 1.40 K/uL and 1.70 K/uL
same,NEUT %,[1],21.94% and 24.51% and 28.20% and 24.44%
same,Na,[1],152 mEq/L and 147 mEq/L (2×) and 150 mEq/L
same,PLT,[1],872 K/uL and 673 K/uL and 676 K/uL and 682 K/uL
same,RBC,[1],9.31 M/uL and 8.95 M/uL and 8.69 M/uL and 8.89 M/uL
same,RDW %,[1],15.6% and 16.1% and 15.2% and 16.4%
same,Right Kidney,[1],0.119 gm and 0.125 gm (2×) and 0.135 gm and 0.75 % body wt and 0.73 % body wt and 0.77 % body wt and 0.78 % body wt
same,Spleen,[1],0.049 gm and 0.070 gm and 0.086 gm and 0.064 gm and 0.31 % body wt and 0.41 % body wt and 0.49 % body wt and 0.40 % body wt
same,TBIL,[1],0.2 mg/d L (3×) and 0.1 mg/d L
same,TP,[1],5.1 g/dL and 4.8 g/dL (2×) and 4.9 g/dL
same,WBC,[1],4.78 K/uL and 6.90 K/uL and 4.98 K/uL and 6.96 K/uL
same,BASO % % ChVh,[2],27.3%
same,BASO (K/uL) % ChVh,[2],−100.0%
same,Body Weight % ChVh,[2],3.6%
same,EOS % % ChVh,[2],5.5%
same,EOS (K/uL) % ChVh,[2],−50.0%
same,HCT % % ChVh,[2],0.2%
same,HGB % ChVh,[2],−5.0%
same,LYM % % ChVh,[2],−0.1%
same,LYM (K/uL) % ChVh,[2],−58.8%
same,Left Kidney (% body wt) % ChVh,[2],−9.1%
same,Left Kidney (gm) % ChVh,[2],−11.8%
same,Liver (% body wt) % ChVh,[2],4.1%
same,Liver (gm) % ChVh,[2],7.9%
same,MCH % ChVh,[2],-4.5%
same,MCHC % ChVh,[2],-5.4%
same,MCV % ChVh,[2],0.4%
same,MONO % % ChVh,[2],−34.0%
same,MONO (K/uL) % ChVh,[2],−70.0%
same,MPV % ChVh,[2],4.3%
same,NEUT % % ChVh,[2],3.7%
same,NEUT (K/uL) % ChVh,[2],−56.3%
same,PLT % ChVh,[2],10.5%
same,RBC % ChVh,[2],−0.2%
same,RDW % % ChVh,[2],0.6%
same,Right Kidney (% body wt) % ChVh,[2],−6.3%
same,Right Kidney (gm) % ChVh,[2],−3.6%
same,Spleen (% body wt) % ChVh,[2],0.0%
same,Spleen (gm) % ChVh,[2],3.2%
same,WBC % ChVh,[2],−58.5%
same,BASO,[3],0.00 K/uL
same,BASO %,[3],0.14%
same,Body Weight,[3],17.981 gm
same,EOS,[3],0.02 K/uL
same,EOS %,[3],0.58%
same,HCT %,[3],44.2%
same,HGB,[3],13.2 g/dL
same,LYM,[3],2.46 K/uL
same,LYM %,[3],84.19%
same,MCH,[3],14.7 pg
same,MCHC,[3],29.9 g/dL
same,MCV,[3],49.0 fL
same,MONO,[3],0.03 K/uL
same,MONO %,[3],0.93%
same,MPV,[3],4.8 fL
same,NEUT,[3],0.42 K/uL
same,NEUT %,[3],14.16%
same,PLT,[3],1196.5 K/uL
same,RBC,[3],9.02 M/uL
same,RDW %,[3],16.3%
same,WBC,[3],2.93 K/uL
same,"2D. Individual chemistry, column 2 (head not shown; probably ALP)",[4],144 and 160
same,"2D. Individual chemistry, column 3 (head not shown; probably ALT)",[4],20 and 22
same,"2D. Individual chemistry, column 4 (head not shown; probably AST)",[4],33 and 38
same,"2D. Individual chemistry, column 5 (head not shown; probably GGT)",[4],0
same,"2D. Individual chemistry, column 6 (head not shown; probably albumin)",[4],2.9
same,"2D. Individual chemistry, column 7 (head not shown; probably total protein)",[4],4.7
same,"2D. Individual chemistry, column 8 (head not shown; probably globulin)",[4],1.8
same,"2D. Individual chemistry, column 10 (head not shown; probably total bilirubin)",[4],0.1
same,"2D. Individual chemistry, column 11 (head not shown; probably BUN)",[4],29 and 35
same,"2D. Individual chemistry, column 12 (head not shown; probably creatinine)",[4],0.2
same,BASO,[4],0.00 K/uL
same,BASO %,[4],0.14% and 0.13%
same,Body Weight,[4],18.769 gm and 17.192 gm
same,CHOL,[4],71 mg/dL and 59 mg/dL
same,Ca,[4],9.0 mg/dL and 9.4 mg/dL
same,Cl,[4],112 mEq/L and 117 mEq/L
same,EOS,[4],0.02 K/uL
same,EOS %,[4],0.50% and 0.66%
same,GLUC,[4],254 mg/dL and 227 mg/dL
same,HCT %,[4],45.9% and 42.5%
same,HGB,[4],13.4 g/dL and 13.0 g/dL
same,K,[4],3.5 mEq/L and 4.0 mEq/L
same,LYM,[4],2.80 K/uL and 2.12 K/uL
same,LYM %,[4],83.42% and 84.96%
same,Left Kidney,[4],0.111 gm and 0.113 gm and 0.73 % body wt and 0.66 % body wt
same,Liver,[4],1.111 gm and 0.988 gm and 5.92 % body wt and 5.75 % body wt
same,MCH,[4],14.4 pg and 14.9 pg
same,MCHC,[4],29.2 g/dL and 30.6 g/dL
same,MCV,[4],49.2 fL and 48.8 fL
same,MONO,[4],0.03 K/uL and 0.02 K/uL
same,MONO %,[4],0.91% and 0.95%
same,MPV,[4],4.6 fL and 4.9 fL
same,NEUT,[4],0.51 K/uL and 0.33 K/uL
same,NEUT %,[4],15.03% and 13.29%
same,Na,[4],147 mEq/L and 149 mEq/L
same,PLT,[4],990 K/uL and 1403 K/uL
same,RBC,[4],9.33 M/uL and 8.70 M/uL
same,RDW %,[4],16.4% and 16.2%
same,Right Kidney,[4],0.137 gm and 0.127 gm and 0.73 % body wt and 0.74 % body wt
same,Spleen,[4],0.081 gm and 0.048 gm and 0.43 % body wt and 0.28 % body wt
same,WBC,[4],3.36 K/uL and 2.50 K/uL
same,Lymph,[5],64 and 60 and 61 and 44
same,Mast,[5],0
same,Mat ery,[5],56 and 62 and 45 and 38
same,Mat myel,[5],122 (2×) and 88 (2×) and 120 (2×) and 121 (2×)
same,Plasma,[5],0
same,Pro myel,[5],34 and 64 and 52 and 72
same,Prol ery,[5],24 and 26 and 22 and 25
same,Total Ery,[5],80 and 88 and 67 and 63
same,Total myel,[5],156 and 152 and 172 and 193
same,% Lymph,[6],21.3% and 20.0% and 20.3% and 14.7%
same,% Mast,[6],0.0%
same,% Mat ery,[6],18.7% and 20.7% and 15.0% and 12.7%
same,% Plasma,[6],0.0%
same,% Pro ery,[6],8.0% and 8.7% and 7.3% and 8.3%
same,% Pro myel,[6],11.3% and 21.3% and 17.3% and 24.0%
same,% T ery,[6],26.7% and 29.3% and 22.3% and 21.0%
same,% T myel,[6],52.0% and 50.7% and 57.3% and 64.3%
same,% mat myel,[6],40.7% and 29.3% and 40.0% and 40.3%
same,M:E,[6],2.0 and 1.7 and 2.6 and 3.1
same,intestinal histology,during and after treatment,No changes
same,% Erythroid,[7],0% (3×) and 1%
same,% Lymph,[7],94% (2×) and 90% (4×) and 86% (2×)
same,% Macrophage,[7],2% (3×) and 0%
same,% Mesenchymal,[7],0% (3×) and 2%
same,% Myeloid,[7],4% and 7% and 9% and 10%
same,% Plasma,[7],0% (3×) and 1%
same,"other blood counts, bone marrow cytology, serum chemistry",[8],no other changes
same,white cell count,[8],reversible drop in white cell count with a nadir on day 19
